In patent publication US6806077B1 (priority 1997, dated 2004):
Like-named read-outs stand apart in the source and are kept apart here.

Legend:
PrPres [1] = test system: PrPres; parameters: species or system C57BL/6 mice; details: mouse, in vivo, ip, 25 mg/kg
PrPres [2] = type: in vivo; details: C57BL/6 mice inoculated i.p. with strain C506M3; AmB 1 mg/kg from tA+15 days; sacrificed at tA+21 or tA+28; Western blot, versus untreated animals

Row | Compound | inhibition of the accumulation of PrPres in the spleen (PrPres [1]) | inhibition of the accumulation of PrPres in the spleen (PrPres [2])
1 | dextran sulphate [DS500] | significant inhibition of the accumulation of PrPres | –
2 | C[C@@H]1[C@H](O)[C@@H](C)/C=C/C=C/C=C/C=C/C=C/C=C/C=C/[C@H](O[C@@H]2O[C@H](C)[C@@H](O)[C@H](N)[C@@H]2O)C[C@@H]2O[C@](O)(C[C@@H](O)C[C@@H](O)[C@H](O)CC[C@@H](O)C[C@@H](O)CC(=O)O[C@H]1C)C[C@H](O)[C@H]2C(=O)O [AmB, amphotericin B] | – | significant inhibition of the accumulation of PrPres
